Blank lines part the entries; values can stand above or below the compound they belong to. Active and inactive are the calls of the source. The calls are words filed in the database; no cut-off is given here.
Experiments:
[1] = molecular target: T1, Isocitrate dehydrogenase [NADP] cytoplasmic (Homo sapiens, UniProt O75874, R132H); experiment: Inhibition of IDH1 R132H mutant (unknown origin) expressed in Escherichia coli BL21 (DE3) assessed as NADPH consumption using alpha-KG as substrate measured after 60 mins
T1 sequence (O75874 2-414 R132H limits assumed): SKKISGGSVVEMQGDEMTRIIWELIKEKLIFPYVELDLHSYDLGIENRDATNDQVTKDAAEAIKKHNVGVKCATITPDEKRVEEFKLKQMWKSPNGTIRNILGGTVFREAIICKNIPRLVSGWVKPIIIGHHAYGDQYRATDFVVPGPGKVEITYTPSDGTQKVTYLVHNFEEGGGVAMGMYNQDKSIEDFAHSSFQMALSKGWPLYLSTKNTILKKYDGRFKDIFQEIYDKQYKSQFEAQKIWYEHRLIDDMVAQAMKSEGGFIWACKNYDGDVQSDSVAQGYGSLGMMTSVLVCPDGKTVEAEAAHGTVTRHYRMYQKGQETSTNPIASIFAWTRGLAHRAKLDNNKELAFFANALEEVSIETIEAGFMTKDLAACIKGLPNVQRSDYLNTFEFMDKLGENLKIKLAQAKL

[2] = molecular target: T1, Isocitrate dehydrogenase [NADP] cytoplasmic; experiment: Inhibition of IDH1 R132H mutant (unknown origin) expressed in HEK293T cells assessed as inhibition of 2-HG generation measured after 48 hrs by LC-MS/MS analysis; format: cell-based
[3] = molecular target: Isocitrate dehydrogenase [NADP], mitochondrial (Homo sapiens, UniProt P48735, R140Q); experiment: Inhibition of IDH2 R140Q mutant (unknown origin) expressed in Escherichia coli BL21 (DE3) assessed as NADPH consumption using alpha-KG as substrate measured after 60 mins
Sequence of Isocitrate dehydrogenase [NADP], mitochondrial (Homo sapiens, UniProt P48735, R140Q) (P48735 40-452 R140Q limits assumed): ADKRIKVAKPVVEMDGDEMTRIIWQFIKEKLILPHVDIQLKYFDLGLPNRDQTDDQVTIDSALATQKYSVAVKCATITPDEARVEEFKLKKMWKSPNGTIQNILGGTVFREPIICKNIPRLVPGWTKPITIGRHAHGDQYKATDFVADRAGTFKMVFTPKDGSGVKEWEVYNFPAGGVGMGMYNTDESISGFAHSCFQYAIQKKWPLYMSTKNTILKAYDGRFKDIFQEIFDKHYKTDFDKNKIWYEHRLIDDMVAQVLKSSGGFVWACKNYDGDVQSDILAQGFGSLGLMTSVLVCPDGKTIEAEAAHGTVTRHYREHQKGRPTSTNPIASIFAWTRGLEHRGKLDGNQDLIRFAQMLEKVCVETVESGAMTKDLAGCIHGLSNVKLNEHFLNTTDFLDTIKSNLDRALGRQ

[4] = molecular target: Isocitrate dehydrogenase [NADP], mitochondrial (Homo sapiens, UniProt P48735, R172K); experiment: Inhibition of IDH2 R172K mutant (unknown origin) expressed in Escherichia coli BL21 (DE3) assessed as NADPH consumption using alpha-KG as substrate measured after 60 mins
Sequence of Isocitrate dehydrogenase [NADP], mitochondrial (Homo sapiens, UniProt P48735, R172K) (P48735 40-452 R172K limits assumed): as the sequence (P48735 40-452 R140Q limits assumed) above, with Q101R, R133K counted along it

[5] = molecular target: T2, Isocitrate dehydrogenase [NADP], mitochondrial (Homo sapiens, UniProt P48735); experiment: Inhibition of wild type IDH2 (unknown origin) expressed in Escherichia coli BL21 (DE3) assessed as NADPH consumption using alpha-KG as substrate measured after 60 mins
T2 sequence (P48735 whole entry): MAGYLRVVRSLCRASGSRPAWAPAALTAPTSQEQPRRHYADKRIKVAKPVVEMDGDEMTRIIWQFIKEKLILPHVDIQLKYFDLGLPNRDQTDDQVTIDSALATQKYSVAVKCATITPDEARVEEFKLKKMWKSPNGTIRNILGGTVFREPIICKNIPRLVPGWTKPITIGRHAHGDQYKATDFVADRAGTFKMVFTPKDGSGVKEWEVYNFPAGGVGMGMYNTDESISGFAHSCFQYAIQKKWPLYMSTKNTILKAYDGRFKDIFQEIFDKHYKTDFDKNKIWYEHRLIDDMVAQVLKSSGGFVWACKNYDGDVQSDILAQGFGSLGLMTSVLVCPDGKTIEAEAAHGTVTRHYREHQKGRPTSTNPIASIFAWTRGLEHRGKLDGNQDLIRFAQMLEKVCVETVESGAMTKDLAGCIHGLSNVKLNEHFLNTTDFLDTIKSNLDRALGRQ

[6] = Apparent volume of distribution in Sprague-Dawley rat at 10 mg/kg, po measured upto 24 hrs by LC-MS/MS analysis; format: ADME, organism-based; conditions: in vivo
[7] = system: Isocitrate dehydrogenase [NADP] cytoplasmic (Homo sapiens), O75874 [R132H]; experiment: Binding affinity to IDH1 R132H mutant (unknown origin) expressed in Escherichia coli BL21 (DE3) assessed as ratio of Kinact/Ki
Sequence of Isocitrate dehydrogenase [NADP] cytoplasmic (Homo sapiens), O75874 [R132H] (O75874 whole entry R132H): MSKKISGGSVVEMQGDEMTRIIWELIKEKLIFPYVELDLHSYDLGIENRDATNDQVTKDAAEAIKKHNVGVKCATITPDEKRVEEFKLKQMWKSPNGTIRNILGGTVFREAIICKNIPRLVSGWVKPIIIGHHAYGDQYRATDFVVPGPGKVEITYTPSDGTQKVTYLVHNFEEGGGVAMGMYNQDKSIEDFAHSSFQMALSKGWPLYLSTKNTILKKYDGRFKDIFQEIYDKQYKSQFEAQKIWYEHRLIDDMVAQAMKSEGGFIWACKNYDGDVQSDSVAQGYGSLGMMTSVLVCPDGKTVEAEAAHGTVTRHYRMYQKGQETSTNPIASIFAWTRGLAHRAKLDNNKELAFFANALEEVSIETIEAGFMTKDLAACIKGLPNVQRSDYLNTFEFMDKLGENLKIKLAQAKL

[8] = molecular target: Isocitrate dehydrogenase [NADP] cytoplasmic (Homo sapiens, UniProt O75874); experiment: Inhibition of wild type IDH1 (unknown origin) expressed in Escherichia coli BL21 (DE3) assessed as NADPH consumption using alpha-KG as substrate measured after 60 mins
Sequence of Isocitrate dehydrogenase [NADP] cytoplasmic (Homo sapiens, UniProt O75874) (O75874 whole entry): as the sequence (O75874 whole entry R132H) above, with H132R counted along it

[9] = system: Acute myeloid leukemic cell; experiment: Antiproliferative activity against human primary AML cells expressing IDH1-R132 mutant assessed as cell viability at 0.3 to 10 uM treated for 2 hrs followed by compound removal after 72 hrs by CellTiter-Glo assay; format: functional, cell-based; conditions: dose 0.3-10 µM
[10] = Cmax in Sprague-Dawley rat at 1 mg/kg, iv measured upto 24 hrs by LC-MS/MS analysis; format: ADME, organism-based; parameters: dose 1 mg/kg, time < 24 hrs, route iv; conditions: in vivo
[11] = molecular target: Isocitrate dehydrogenase [NADP] cytoplasmic (Homo sapiens, UniProt O75874, R132C); experiment: Inhibition of IDH1 R132C mutant (unknown origin) expressed in Escherichia coli BL21 (DE3) assessed as NADPH consumption using alpha-KG as substrate measured after 60 mins
Sequence of Isocitrate dehydrogenase [NADP] cytoplasmic (Homo sapiens, UniProt O75874, R132C) (O75874 2-414 R132C limits assumed): as the sequence (O75874 2-414 R132H limits assumed) above, with H131C counted along it

[12] = Half life in Sprague-Dawley rat at 1 mg/kg, iv measured upto 24 hrs by LC-MS/MS analysis; format: ADME, organism-based; conditions: in vivo
[13] = AUC (0 to t) in Sprague-Dawley rat at 1 mg/kg, iv measured upto 24 hrs by LC-MS/MS analysis; format: ADME, organism-based; parameters: dose 1 mg/kg, time < 24 hrs, route iv; conditions: in vivo
[14] = Cmax in Sprague-Dawley rat at 10 mg/kg, po measured upto 24 hrs by LC-MS/MS analysis; format: ADME, organism-based; parameters: time < 24 hrs, dose 10 mg/kg, route po; conditions: in vivo
[15] = system: Isocitrate dehydrogenase [NADP] cytoplasmic (Homo sapiens), O75874 [R132H]; experiment: Binding affinity to IDH1 R132H mutant (unknown origin) expressed in Escherichia coli BL21 (DE3) assessed as inactivation constant
[16] = Clearance in Sprague-Dawley rat at 10 mg/kg, po measured upto 24 hrs by LC-MS/MS analysis; format: ADME, organism-based; conditions: in vivo
HT-1080 = experiment: Antiproliferative activity against human HT-1080 cells assessed as cell viability at 0.3 to 10 uM treated for 2 hrs followed by compound removal after 72 hrs by CellTiter-Glo assay; format: functional, cell-based; conditions: dose 0.3-10 µM
[17] = Apparent volume of distribution in Sprague-Dawley rat at 1 mg/kg, iv measured upto 24 hrs by LC-MS/MS analysis; format: ADME, organism-based; conditions: in vivo, read-out: Vz
[18] = In vivo inhibition of IDH1 mutant activity in tumor of human HT-1080 cells xenografted in Balb/c mouse model assessed as reduction in 2-HG level at […], ip single administration measured upto 2 hrs relative to control; format: functional
[19] = molecular target: T1, Isocitrate dehydrogenase [NADP] cytoplasmic; experiment: Reversible binding affinity to IDH1 R132H mutant (unknown origin) expressed in Escherichia coli BL21 (DE3) assessed as inhibition constant
[20] = Oral bioavailability in Sprague-Dawley rat at 10 mg/kg measured upto 24 hrs by LC-MS/MS analysis; format: ADME, organism-based; conditions: in vivo
[21] = Tmax in Sprague-Dawley rat at 10 mg/kg, po measured upto 24 hrs by LC-MS/MS analysis; format: ADME, organism-based; conditions: in vivo
[22] = Tmax in Sprague-Dawley rat at 1 mg/kg, iv measured upto 24 hrs by LC-MS/MS analysis; format: ADME, organism-based; conditions: in vivo
[23] = AUC (0 to t) in Sprague-Dawley rat at 10 mg/kg, po measured upto 24 hrs by LC-MS/MS analysis; format: ADME, organism-based; parameters: time < 24 hrs, dose 10 mg/kg, route po; conditions: in vivo
[24] = Half life in Sprague-Dawley rat at 10 mg/kg, po measured upto 24 hrs by LC-MS/MS analysis; format: ADME, organism-based; conditions: in vivo

SMILES: CC(C)[C@H]1COC(=O)N1c1nc(N[C@@H](C)c2ccc(N3CCCC(NC(=O)CCl)C3)cc2)ncc1F (some centres undefined)
IC50 [1]: 0.516 µM

SMILES: CCC(=O)NC1CCCN(c2ccc([C@H](C)Nc3ncc(F)c(N4C(=O)OC[C@@H]4C(C)C)n3)cc2)C1 (some centres undefined)
IC50 [1]: 0.67 µM

SMILES: C=CC(=O)Nc1ccc(Nc2ccc([C@H](C)Nc3ccc(C#N)cn3)cc2)cc1N(C)C
IC50 [1]: 6.13 µM

SMILES: C=CC(=O)NC1CCCN(c2ccc([C@H](C)Nc3ncc(F)c(N4C(=O)OC[C@@H]4C(C)C)n3)cc2)C1 (some centres undefined)
IC50 [2]: 0.295 µM
IC50 [1]: 0.44 µM

SMILES: CCS(=O)(=O)NC1CCN(c2ccc([C@H](C)Nc3ncc(F)c(N4C(=O)OC[C@@H]4C(C)C)n3)cc2)CC1
IC50 [2]: 1.47 µM
IC50 [1]: 0.143 µM

SMILES: CCC(=O)NC1CCN(c2ccc([C@H](C)Nc3ncc(F)c(N4C(=O)OC[C@@H]4C(C)C)n3)cc2)CC1
IC50 [1]: 0.198 µM

SMILES: N#Cc1ccnc(N2C(=O)CC[C@H]2C(=O)N(c2cncc(F)c2)[C@H](C(=O)NC2CC(F)(F)C2)c2ccccc2Cl)c1 [IVOSIDENIB]
IC50 [3]: > 10 µM
IC50 [4]: > 10 µM
IC50 [5]: > 10 µM

SMILES: C=CS(=O)(=O)NC1CCN(c2ccc([C@H](C)Nc3ncc(C#N)cn3)cc2)CC1
IC50 [1]: 4.49 µM

SMILES: CCS(=O)(=O)NC1CCN(c2ccc([C@H](C)Nc3ncc(C#N)cn3)cc2)CC1
IC50 [1]: 3.49 µM

SMILES: CCS(=O)(=O)NC1CCN(c2ccc([C@H](C)Nc3nccc(N4C(=O)OC[C@@H]4C(C)C)n3)cc2)CC1
IC50 [1]: 0.541 µM

SMILES: C=CS(=O)(=O)NC1CCN(c2ccc([C@H](C)Nc3ncc(F)c(N4C(=O)OC[C@@H]4C(C)C)n3)cc2)CC1
Vz [6]: 118.878 L/kg
Ratio [7]: 0.007 µM⁻¹ s⁻¹
IC50 [8]: > 10 µM
Activity [9]: Active
Cmax [10]: 199.67 ng/mL
IC50 [2]: 0.028 µM
IC50 [11]: 0.139 µM
t1/2 [12]: 9.6 min
AUCt [13]: 267.61 ng·h/mL
Cmax [14]: 88.1 ng/mL
Kinact [15]: 0.015 min⁻¹
IC50 [1]: 0.0047 µM
IC50 [3]: > 10 µM
CL/F [16]: 260 L/h/kg
Activity (HT-1080): Active
Vd [17]: 5.39 L/kg
IC50 [4]: > 10 µM
inhibition (INH) [18]: >85%
Ki [19]: 0.037 µM
F [20]: 9.26%
Tmax [21]: 15 min
Tmax [22]: 1.8 min
AUCt [23]: 36.31 ng·h/mL
half-life [24]: 18 min
IC50 [5]: > 10 µM

SMILES: C=CC(=O)NC1CCN(c2ccc([C@H](C)Nc3nccc(N4C(=O)OC[C@@H]4C(C)C)n3)cc2)CC1
IC50 [1]: 6.51 µM

SMILES: CC(C)[C@H]1COC(=O)N1c1nc(N[C@@H](C)c2ccc(N3CCC(NC(=O)CCl)CC3)cc2)ncc1F
IC50 [1]: 0.087 µM

The remaining lines, values ahead:

IC50 [2]: 0.114 µM
IC50 [1]: 0.155 µM
SMILES: C=CC(=O)Nc1cc(Nc2ccc([C@H](C)Nc3ncc(F)c(N4C(=O)OC[C@@H]4C(C)C)n3)cc2)ccc1N(C)C

IC50 [2]: 0.126 µM
IC50 [1]: 0.077 µM
SMILES: CCC(=O)Nc1cc(Nc2ccc([C@H](C)Nc3ncc(F)c(N4C(=O)OC[C@@H]4C(C)C)n3)cc2)ccc1N1CCOCC1

IC50 [2]: 0.331 µM
IC50 [1]: 0.976 µM
SMILES: C=CC(=O)Nc1ccc(Nc2ccc([C@H](C)Nc3ncc(F)c(N4C(=O)OC[C@@H]4C(C)C)n3)cc2)cc1N1CCOCC1

IC50 [2]: 0.866 µM
IC50 [1]: 0.088 µM
SMILES: C=CS(=O)(=O)Nc1ccc(Nc2ccc([C@H](C)Nc3ncc(F)c(N4C(=O)OC[C@@H]4C(C)C)n3)cc2)cc1C

IC50 [2]: 0.045 µM
IC50 [1]: 0.0059 µM
SMILES: C=CS(=O)(=O)Nc1ccc(Nc2ccc([C@H](C)Nc3ncc(F)c(N4C(=O)OC[C@@H]4C(C)C)n3)cc2)cc1F

IC50 [2]: 0.864 µM
IC50 [1]: 0.245 µM
SMILES: C=CS(=O)(=O)Nc1ccc(Nc2ccc([C@H](C)Nc3ncc(F)c(N4C(=O)OC[C@@H]4C(C)C)n3)cc2)cc1N1CCN(CC)CC1

IC50 [1]: 0.932 µM
SMILES: CCC(=O)Nc1cc(Nc2ccc([C@H](C)Nc3ncc(F)c(N4C(=O)OC[C@@H]4C(C)C)n3)cc2)ccc1N(C)C
